# Source: US20220135622A1, “ANTIBACTERIAL PEPTIDES AND METHODS OF USE” (priority 2019, published 2022)
# Entries after “also recorded” stand apart in the source; their conditions may differ. Like-named read-outs stand apart in the source and are kept apart here.
# Legend:
# [1] = tested on: E. coli BW25113; type: cell-based, Escherichia coli
# Summary of the method: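 Growth inhibition: log-phase cells (OD600 ~0.001), peptides in 2-fold series up to 400–800 μM in MHB II, EDTA 0.5 mM (E. coli) or 0.125 mM (USA300), 4 h at 37 °C, ATP luminescence readout. MICs: inoculum at OD600 ~0.0002, with or without EDTA, 20 h at 37 °C, OD600 endpoint.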
# [2] = tested on: S. aureus USA300; assay: MIC assay, S. aureus USA300; type: cell-based, Staphylococcus aureus; conditions: Table 7
# Method: (§1) Bacterial growth conditions. LB or Mueller Hinton II cation-adjusted broth (MHB II, BBL 212322) was prepared according to manufacturer's instructions and supplemented with arabinose at 0.02% for overnight growth or at indicated concentrations in the description of the figures. Bacterial cultures were grown at 37° C. When appropriate, media was supplemented with kanamycin (50 μg/mL), carbenicillin (50 μg/mL), chloramphenicol (12.5 or 25 μg/mL), hygromycin (200 μg/mL), and/or gentamicin (10 μg/mL).
# (§2) Peptide sensitivity and MIC assays. Lyophilized peptides (Smartox Biotechnology, CPC Scientific. ABclonal) were solubilized to 10 mM in Tris buffer, pH 8, prior to making a 2-fold dilution series in MHBII cation adjusted broth with highest final assay concentration of 400-800 μM. Bacteria were grown to log phase and added to final OD600˜0.001. The final EDTA concentration was 0.5 mM for E. coli strains and 0.125 mM for USA300. The final volume of 10 μL/well in a 384 well black, clear bottom plate (Corning) was spun <1 min at <250×g and then incubated at 37° C. After 4 h, an equal volume (10 μL) of BacTiter-Glo™ (Promega) was added to each well and luminescence was read after 5 min on an EnVision plate reader (PerkinElmer). To measure the minimal inhibitory concentrations (MICs), bacteria from fresh overnight plates or log phase cultures were diluted with or without EDTA and peptides as described above to final OD600˜0.0002. Plates were incubated at 37° C. for 20 h before measuring OD600 with an EnVision plate reader.
# [3] = tested on: E. coli imp4213; assay: MIC assay, E. coli imp4213; type: cell-based, Escherichia coli; conditions: Table 7
# Method: as §1, §2
# [4] = tested on: E. coli ΔwaaD; assay: MIC assay, E. coli ΔwaaD; type: cell-based, Escherichia coli; conditions: Table 7; + EDTA
# Method: as §1, §2
# [5] = tested on: K. pneumoniae; type: cell-based, Klebsiella pneumoniae; conditions: Table 8
# Summary of the method: (§3)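 Dilute peptide 2-fold in cation-adjusted MHB II to a top final concentration of 400-800 μM. Add bacteria to final OD600 ~0.0002 along with EDTA (0.5 mM E. coli, 0.125 mM USA300). Incubate 20 h at 37° C, then measure OD600.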
# [6] = tested on: A. baumannii; type: cell-based, Acinetobacter baumannii; conditions: Table 8
# Summary of the method: as §3
# [7] = tested on: P. aeruginosa; type: cell-based, Pseudomonas aeruginosa; conditions: Table 8
# Summary of the method: as §3
# [8] = tested on: E. coli ΔwaaD MCR-1; assay: MIC assay, E. coli ΔwaaD MCR-1; type: cell-based, Escherichia coli; conditions: Table 7
# Method: as §1, §2
# [9] = tested on: E. coli ΔwaaD + vect.; assay: MIC assay, E. coli ΔwaaD + vect.; type: cell-based, Escherichia coli; conditions: Table 7
# Method: as §1, §2
# [10] = Biolayer interferometry: captured biotinylated LAB peptides binding to LPS (KDO2-lipid A); conditions: for binding to LPS: interferometry, above background
# Method: (§4) Biolayer interferometry. Phospholipid (Avanti polar lipids) and KDO2-lipid A (US Biological Life Sciences) stock solutions were prepared by resuspension into 25 mM Tris pH 8, 100 mM NaCl, 0.05% LMNG buffer and solubilized overnight at 4° C. Lipid stocks were diluted prior to experiments into 25 mM Tris pH 8, 100 mM NaCl, 0.5 mg/mL BSA, 0.05% LMNG. All assays were performed at 25° C. in 25 mM Tris pH 8, 100 mM NaCl, 0.5 mg/mL BSA, 0.05% LMNG. Biotinylated-LAB peptides were loaded onto SA biosensors to a response of approximately 0.5 nm. Binding to phospholipids and KDO2-lipid A was measured at concentrations of 150, 100, 50, 25, and 10 μM with 300s association and dissociation steps. Assays were performed in triplicate on an Octet Red384 (ForteBio) and buffer and lipid signals were subtracted by using a biotin-blocked reference streptavidin (SA) biosensor. Dissociation constants for LABWT and LABWT+, interactions with KDO2-lipidA were estimated by plotting response values at equilibrium as a function of concentration and fit to a global specific binding with Hill slope model in Prism (Graphpad Software).
# Based on the intriguing chemical characteristics of the LPS-PbgA interface, the possibility that a linear peptide derived from PbgA might selectively bind to LPS in vitro was considered. A peptide encompassing the lipid A-binding (LAB)-motif (209SYPMTARRFLEKHGLLD225; SEQ ID NO: 67) with an additional Gly-Ser-linker and biotin modification was generated and used in an interferometry-based assay. […] Two peptides intended to destabilize essential lipid A binding determinants were tested as controls.
# [11] = Biolayer interferometry: captured biotinylated LAB peptides binding to phospholipids; design: species or system E. coli; conditions: above background
# Method: as §4
# Based on the intriguing chemical characteristics of the LPS-PbgA interface, the possibility that a linear peptide derived from PbgA might selectively bind to LPS in vitro was considered. […]
# [12] = tested on: E. coli; assay: Cell growth inhibition assay with or without EDTA; type: cell-based, Escherichia coli; conditions: irrespective of the presence or absence of EDTA (0.5 mM)
# Method: as §2
# It was reasoned that the relatively large molecular weight (>2 kDa) and limited α-helical propensity of the linear LABWT peptide (SEQ ID NO: 1) might limit its access to LPS in the bacterial OM. […]
# [13] = tested on: E. coli imp4213; assay: Bacterial growth inhibition, E. coli imp4213; type: cell-based, Escherichia coli
# Method: as §1
# as §2, with “To measure the minimal inhibitory concentrations (MICs), bacteria from fresh overnight plates or log phase cultures were diluted with or without EDTA and peptides as described above to final OD600˜0.0002.” left out
# [14] = tested on: E. coli+FhuAΔC/Δ4L; assay: Bacterial growth inhibition, E. coli+FhuAΔC/Δ4L; type: cell-based, Escherichia coli
# Method: as §1
# as §2, with “To measure the minimal inhibitory concentrations (MICs), bacteria from fresh overnight plates or log phase cultures were diluted with or without EDTA and peptides as described above to final OD600˜0.0002.” left out
# [15] = tested on: wild-type E. coli strain; assay: Bacterial growth inhibition, wild-type E. coli strain; type: cell-based, Escherichia coli
# Method: as §1
# as §2, with “To measure the minimal inhibitory concentrations (MICs), bacteria from fresh overnight plates or log phase cultures were diluted with or without EDTA and peptides as described above to final OD600˜0.0002.” left out
# [16] = tested on: E. coli mcr-1; type: cell-based, Escherichia coli; conditions: Table 6
# Summary of the method: as §3
substance,measurement,setting,value
Ac-YPMTARRFLEKHGLL-NH2 [compound 11],MIC E coli BW25113 + EDTA,[1]; Table 7,400 µM
same,MIC E. coli BW25113,"[1]; Table 7, no EDTA",>800 µM
same,MIC S. aureus USA300,[2],>800 µM
same,MIC E. coli imp4213,[3],200 µM
same,MIC E. coli ΔwaaD + EDTA,[4],400 µM
Ac-YPMTARRFLEKHGLLD-NH2 [compound 10],MIC E coli BW25113 + EDTA,[1]; Table 7,800 µM
same,MIC E. coli BW25113,"[1]; Table 7, no EDTA",>800 µM
same,MIC S. aureus USA300,[2],>800 µM
same,MIC E. coli imp4213,[3],800 µM
same,MIC E. coli ΔwaaD + EDTA,[4],>800 µM
Ac-YPMTFRRFLEKWGLLR-NH2 [compound 59],MIC E. coli BW25113,[1]; Table 8,400 µM
same,MIC S. aureus USA300,[2],>400 µM
same,MIC E. coli imp4213,[3],12.5 µM
same,MIC K. pneumoniae,[5],800 µM
same,MIC A. baumannii,[6],50 µM
same,MIC R. aeruginosa,[7],>800 µM
same,MIC E coli ΔwaaD − MCR1,[8],50 µM
same,MIC E. coli ΔwaaD + vect.,[9],25 µM
Ac-YPMTMRRFLEKWGLLR-NH2 [compound 58],MIC E. coli BW25113,[1]; Table 8,400 µM
same,MIC S. aureus USA300,[2],>400 µM
same,MIC E. coli imp4213,[3],12.5 µM
same,MIC K. pneumoniae,[5],400 µM
same,MIC A. baumannii,[6],25 µM
same,MIC R. aeruginosa,[7],>800 µM
same,MIC E coli ΔwaaD − MCR1,[8],50 µM
same,MIC E. coli ΔwaaD + vect.,[9],50/25
GSSYPMDARRFLEKHGLLD (Ac-GSSYPMDARRFLEKHGLLD-NH2) [SEQ ID NO: 3],binding to LPS,[10]; listed as LABT213D,Neither a peptide lacking the α7 helix (LABΔα7; SEQ ID NO: 2) nor a peptide containing the T213D mutation equivalent (LABT213D; SEQ ID NO: 3) showed detectable binding to LPS or PLs above background; also recorded: failed to bind LPS in vitro
same,binding to PLs,[11],Neither a peptide lacking the α7 helix (LABΔα7; SEQ ID NO: 2) nor a peptide containing the T213D mutation equivalent (LABT213D; SEQ ID NO: 3) showed detectable binding to LPS or PLs above background
same,effect on bacterial cell growth,[12],showed no effect on bacterial cell growth
GSSYPMTARRFLE (Ac-GSSYPMTARRFLE-NH2) [SEQ ID NO: 2],binding to LPS,[10]; listed as LABΔα7,Neither a peptide lacking the α7 helix (LABΔα7; SEQ ID NO: 2) nor a peptide containing the T213D mutation equivalent (LABT213D; SEQ ID NO: 3) showed detectable binding to LPS or PLs above background; also recorded: failed to bind LPS in vitro
same,binding to PLs,[11],Neither a peptide lacking the α7 helix (LABΔα7; SEQ ID NO: 2) nor a peptide containing the T213D mutation equivalent (LABT213D; SEQ ID NO: 3) showed detectable binding to LPS or PLs above background
same,effect on bacterial cell growth,[12],showed no effect on bacterial cell growth
GSSYPMTARRFLEKHGLLD [SEQ ID NO: 1],Kd,"[10]; LPS (KDO2-lipid A), biotinylated peptide on SA biosensor, 25° C., estimated from equilibrium responses",~75 µM
same,selective binding to LPS over PLs,[10]; versus the major PLs found in E. coli,bound LPS selectively over the major PLs
same,growth inhibition,[13],significantly impacted the growth
same,growth inhibition,[14],significantly impacted the growth
same,growth inhibition,[15],failed to inhibit the growth
Polymyxin B [reference compound],Polymyxin B MIC,"[1]; Table 6, E. coli K-12 wild-type parent BW25113",0.2 µM
same,Polymyxin B MIC,[16],12.5 µM
